According to article PMC7366380, “Discovery of a Potent and Selective Covalent Inhibitor and Activity-Based Probe for the Deubiquitylating Enzyme UCHL1, with Antifibrotic Activity” (Journal of the American Chemical Society, 2020):
Several values for one entry are separate records, joined by “and”; a condition that tells them apart may be missing. Equal entries are not always repeated.

How the values were obtained:
[1] = molecular target: T1, USP19 (Homo sapiens, UniProt O94966); experiment: Biochemical DUB selectivity profiling assay: USP19; conditions: Ub-Lys-TAMRA 50 nM, buffer A; read-out: Biochemical IC50 range, USP19
T1 sequence (O94966 1-1318): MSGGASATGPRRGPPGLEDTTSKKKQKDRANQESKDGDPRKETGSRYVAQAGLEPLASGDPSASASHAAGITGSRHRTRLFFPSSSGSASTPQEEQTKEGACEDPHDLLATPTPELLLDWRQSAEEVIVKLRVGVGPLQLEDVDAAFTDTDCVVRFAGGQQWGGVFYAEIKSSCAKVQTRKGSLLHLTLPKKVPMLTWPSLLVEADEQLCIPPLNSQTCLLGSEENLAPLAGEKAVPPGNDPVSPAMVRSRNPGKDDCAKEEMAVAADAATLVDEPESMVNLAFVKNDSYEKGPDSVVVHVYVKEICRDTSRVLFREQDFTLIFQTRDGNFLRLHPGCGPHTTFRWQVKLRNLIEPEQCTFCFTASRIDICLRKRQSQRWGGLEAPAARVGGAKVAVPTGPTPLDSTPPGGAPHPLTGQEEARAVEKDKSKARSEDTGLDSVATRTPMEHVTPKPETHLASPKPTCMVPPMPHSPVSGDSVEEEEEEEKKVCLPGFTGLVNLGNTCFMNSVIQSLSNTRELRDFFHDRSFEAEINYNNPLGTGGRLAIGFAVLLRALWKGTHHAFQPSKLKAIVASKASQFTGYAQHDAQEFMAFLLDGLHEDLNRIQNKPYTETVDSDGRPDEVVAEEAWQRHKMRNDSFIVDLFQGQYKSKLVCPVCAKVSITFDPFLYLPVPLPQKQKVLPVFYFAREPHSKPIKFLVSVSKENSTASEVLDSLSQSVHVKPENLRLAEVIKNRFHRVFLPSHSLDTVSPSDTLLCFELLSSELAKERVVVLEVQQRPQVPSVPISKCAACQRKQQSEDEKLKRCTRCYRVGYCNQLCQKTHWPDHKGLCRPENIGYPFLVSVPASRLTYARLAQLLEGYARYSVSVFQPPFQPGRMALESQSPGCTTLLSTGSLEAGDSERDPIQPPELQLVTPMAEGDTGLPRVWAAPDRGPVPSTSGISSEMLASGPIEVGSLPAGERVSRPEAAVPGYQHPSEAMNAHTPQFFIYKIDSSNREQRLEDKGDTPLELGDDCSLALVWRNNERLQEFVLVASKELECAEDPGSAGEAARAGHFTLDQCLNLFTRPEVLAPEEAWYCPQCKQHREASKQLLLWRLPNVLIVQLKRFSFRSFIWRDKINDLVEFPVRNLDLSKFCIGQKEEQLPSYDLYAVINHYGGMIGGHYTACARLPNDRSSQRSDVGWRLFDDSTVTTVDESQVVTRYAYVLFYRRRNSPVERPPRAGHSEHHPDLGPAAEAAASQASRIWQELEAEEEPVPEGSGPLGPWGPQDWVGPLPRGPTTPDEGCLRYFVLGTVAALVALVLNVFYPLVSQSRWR
Protocol: DUB Assay Substrate Substrate
Buffer Concentration (nM) […]
Sepharose® 4B resin (GE Healthcare).
10 kDa molecular weight cut-off (MWCO)).
Fractions containing protein
Protein concentration was […]
reaction volume of 21 μL. […]
compound (final concentration 5 nM).
IC50 values were determined
Biochemical DUB selectivity profiling assays […]
in 40 µL total reaction volume.

[2] = molecular target: DUBs and other proteins in HEK293 cells (Homo sapiens, UniProt Q14694); experiment: In-cell proteome-wide competitive ABPP, HEK293: other DUBs and proteins; conditions: replicates A-C; for Log2 reporter intensity values: USP10: competition with ABP 2, DMSO substract (FC); for Log2 reporter intensity values: USP10, DMSO subtracted
[3] = molecular target: DUBs and other proteins in HEK293 cells (Homo sapiens, UniProt Q93008); experiment: as above; conditions: replicates A-C; for Log2 reporter intensity values: USP9X;USP9Y: competition with ABP 2, DMSO substract (FC); for Log2 reporter intensity values: USP9X;USP9Y, DMSO subtracted
[4] = molecular target: DUBs and other proteins in HEK293 cells (Homo sapiens, UniProt O15372); experiment: as above; conditions: for Log2 reporter intensity values, EIF3H: TMT replicates; for Log2 reporter intensity values: EIF3H: competition with ABP 2, DMSO substract (FC); for Log2 reporter intensity values: EIF3H / Log2 reporter intensity values: replicates A-C; for Log2 t-test Difference / Log2 reporter intensity values: EIF3H
[5] = molecular target: DUBs and other proteins in HEK293 cells (Homo sapiens, UniProt Q96FW1); experiment: as above; conditions: replicates A-C; for Log2 reporter intensity values: OTUB1: competition with ABP 2, DMSO substract (FC); for Log2 reporter intensity values: OTUB1, DMSO subtracted
[6] = molecular target: DUBs and other proteins in HEK293 cells (Homo sapiens, UniProt Q96BN8); experiment: as above; conditions: replicates A-C; for Log2 reporter intensity values: OTULIN: competition with ABP 2, DMSO substract (FC); for Log2 reporter intensity values: OTULIN, DMSO subtracted
[7] = molecular target: DUBs and other proteins in HEK293 cells (Homo sapiens, UniProt P51784); experiment: as above; conditions: replicates A-C; for Log2 reporter intensity values: USP11: competition with ABP 2, DMSO substract (FC); for Log2 reporter intensity values: USP11, DMSO subtracted

Chain of DUBs and other proteins in HEK293 cells (Homo sapiens, UniProt Q14694) (Q14694 whole entry): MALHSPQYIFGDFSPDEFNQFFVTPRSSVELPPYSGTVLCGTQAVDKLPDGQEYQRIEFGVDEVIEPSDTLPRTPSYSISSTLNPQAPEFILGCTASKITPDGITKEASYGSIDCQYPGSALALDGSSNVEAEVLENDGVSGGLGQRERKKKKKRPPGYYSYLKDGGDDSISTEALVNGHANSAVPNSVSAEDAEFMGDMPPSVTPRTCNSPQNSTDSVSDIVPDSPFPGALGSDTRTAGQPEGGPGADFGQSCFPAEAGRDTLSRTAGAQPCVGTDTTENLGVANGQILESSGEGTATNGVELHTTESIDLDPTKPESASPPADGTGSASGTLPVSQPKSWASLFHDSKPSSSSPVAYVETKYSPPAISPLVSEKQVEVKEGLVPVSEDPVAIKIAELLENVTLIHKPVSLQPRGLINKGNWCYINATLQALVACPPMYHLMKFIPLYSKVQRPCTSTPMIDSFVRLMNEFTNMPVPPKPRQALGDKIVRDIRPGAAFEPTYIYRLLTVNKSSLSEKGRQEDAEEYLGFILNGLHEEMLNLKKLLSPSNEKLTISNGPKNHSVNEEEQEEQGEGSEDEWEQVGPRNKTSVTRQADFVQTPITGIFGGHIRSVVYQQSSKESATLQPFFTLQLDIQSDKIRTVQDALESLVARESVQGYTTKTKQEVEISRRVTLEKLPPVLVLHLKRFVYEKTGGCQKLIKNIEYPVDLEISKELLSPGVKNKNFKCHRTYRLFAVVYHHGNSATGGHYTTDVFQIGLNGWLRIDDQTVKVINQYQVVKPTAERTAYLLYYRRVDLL
Chain of DUBs and other proteins in HEK293 cells (Homo sapiens, UniProt Q93008) (Q93008 whole entry): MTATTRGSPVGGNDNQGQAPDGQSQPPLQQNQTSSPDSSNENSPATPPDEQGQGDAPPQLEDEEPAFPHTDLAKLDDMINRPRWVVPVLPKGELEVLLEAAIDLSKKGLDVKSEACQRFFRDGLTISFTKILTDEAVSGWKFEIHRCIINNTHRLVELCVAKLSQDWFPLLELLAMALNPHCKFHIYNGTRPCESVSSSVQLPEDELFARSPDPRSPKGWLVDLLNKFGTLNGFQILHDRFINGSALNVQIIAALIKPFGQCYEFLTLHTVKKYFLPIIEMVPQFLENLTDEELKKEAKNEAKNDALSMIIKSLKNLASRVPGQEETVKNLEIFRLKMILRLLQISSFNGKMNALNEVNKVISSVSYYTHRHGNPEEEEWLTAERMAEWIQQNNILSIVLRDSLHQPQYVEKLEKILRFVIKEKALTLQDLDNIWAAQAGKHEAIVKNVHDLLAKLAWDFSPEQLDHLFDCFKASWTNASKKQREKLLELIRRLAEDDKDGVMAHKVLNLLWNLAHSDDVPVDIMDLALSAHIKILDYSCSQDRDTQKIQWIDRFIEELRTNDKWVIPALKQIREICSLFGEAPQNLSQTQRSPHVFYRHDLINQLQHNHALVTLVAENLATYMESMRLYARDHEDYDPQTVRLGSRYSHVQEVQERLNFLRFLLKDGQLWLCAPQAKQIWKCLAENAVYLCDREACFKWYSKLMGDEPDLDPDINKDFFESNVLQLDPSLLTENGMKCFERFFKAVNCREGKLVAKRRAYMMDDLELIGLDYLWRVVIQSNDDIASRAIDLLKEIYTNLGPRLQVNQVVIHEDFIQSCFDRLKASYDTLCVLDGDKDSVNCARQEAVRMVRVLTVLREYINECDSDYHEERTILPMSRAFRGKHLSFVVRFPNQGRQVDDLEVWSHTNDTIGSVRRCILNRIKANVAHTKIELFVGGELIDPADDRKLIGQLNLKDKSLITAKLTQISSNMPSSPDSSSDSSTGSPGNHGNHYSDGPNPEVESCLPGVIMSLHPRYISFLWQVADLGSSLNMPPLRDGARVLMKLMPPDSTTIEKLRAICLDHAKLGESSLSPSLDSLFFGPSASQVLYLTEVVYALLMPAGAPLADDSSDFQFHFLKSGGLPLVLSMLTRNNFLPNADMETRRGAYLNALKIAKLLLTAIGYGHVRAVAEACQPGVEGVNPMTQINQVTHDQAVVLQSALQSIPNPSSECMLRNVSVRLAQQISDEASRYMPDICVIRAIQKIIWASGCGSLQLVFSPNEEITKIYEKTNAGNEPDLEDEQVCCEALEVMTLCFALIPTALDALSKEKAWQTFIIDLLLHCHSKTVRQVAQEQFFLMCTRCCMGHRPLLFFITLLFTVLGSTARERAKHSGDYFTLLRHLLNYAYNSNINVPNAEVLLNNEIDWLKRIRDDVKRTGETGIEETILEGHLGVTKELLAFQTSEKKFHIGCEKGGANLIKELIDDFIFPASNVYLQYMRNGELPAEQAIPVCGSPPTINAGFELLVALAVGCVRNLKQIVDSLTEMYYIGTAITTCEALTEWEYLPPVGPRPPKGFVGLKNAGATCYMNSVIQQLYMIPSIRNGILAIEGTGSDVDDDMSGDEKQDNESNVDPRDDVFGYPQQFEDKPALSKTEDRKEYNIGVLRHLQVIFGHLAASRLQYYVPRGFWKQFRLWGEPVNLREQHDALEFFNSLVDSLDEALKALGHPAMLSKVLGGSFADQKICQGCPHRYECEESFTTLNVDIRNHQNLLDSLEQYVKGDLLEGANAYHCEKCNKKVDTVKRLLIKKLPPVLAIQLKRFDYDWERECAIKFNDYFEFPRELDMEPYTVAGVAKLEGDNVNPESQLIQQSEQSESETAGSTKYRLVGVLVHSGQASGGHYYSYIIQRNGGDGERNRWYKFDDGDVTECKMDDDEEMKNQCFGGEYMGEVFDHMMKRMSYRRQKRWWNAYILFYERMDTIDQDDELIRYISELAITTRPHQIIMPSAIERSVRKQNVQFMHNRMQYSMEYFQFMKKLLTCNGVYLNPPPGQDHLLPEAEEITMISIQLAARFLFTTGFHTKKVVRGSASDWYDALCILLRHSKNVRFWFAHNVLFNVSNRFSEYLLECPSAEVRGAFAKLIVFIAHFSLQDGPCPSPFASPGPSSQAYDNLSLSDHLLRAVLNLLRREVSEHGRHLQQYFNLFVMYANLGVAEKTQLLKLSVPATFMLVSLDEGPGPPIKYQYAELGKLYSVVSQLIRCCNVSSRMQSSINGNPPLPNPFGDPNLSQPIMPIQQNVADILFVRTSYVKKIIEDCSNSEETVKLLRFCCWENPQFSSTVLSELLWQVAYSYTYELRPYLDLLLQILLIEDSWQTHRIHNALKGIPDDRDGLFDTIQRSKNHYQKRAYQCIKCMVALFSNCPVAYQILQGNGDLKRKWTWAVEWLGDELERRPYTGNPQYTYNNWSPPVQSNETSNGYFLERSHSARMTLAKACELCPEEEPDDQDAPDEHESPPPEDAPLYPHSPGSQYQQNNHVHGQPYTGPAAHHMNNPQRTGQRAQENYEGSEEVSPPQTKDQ
Chain of DUBs and other proteins in HEK293 cells (Homo sapiens, UniProt O15372) (O15372 whole entry): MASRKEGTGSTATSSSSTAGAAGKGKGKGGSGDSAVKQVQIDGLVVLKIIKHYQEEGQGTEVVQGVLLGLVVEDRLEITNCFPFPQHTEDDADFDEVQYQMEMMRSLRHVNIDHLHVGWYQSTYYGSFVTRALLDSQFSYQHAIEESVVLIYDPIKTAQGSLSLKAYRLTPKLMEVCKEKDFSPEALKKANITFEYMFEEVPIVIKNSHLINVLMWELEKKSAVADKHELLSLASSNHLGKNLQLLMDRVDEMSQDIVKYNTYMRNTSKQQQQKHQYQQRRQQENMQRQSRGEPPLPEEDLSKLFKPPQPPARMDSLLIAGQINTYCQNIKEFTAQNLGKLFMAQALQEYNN
Chain of DUBs and other proteins in HEK293 cells (Homo sapiens, UniProt Q96FW1) (Q96FW1 whole entry): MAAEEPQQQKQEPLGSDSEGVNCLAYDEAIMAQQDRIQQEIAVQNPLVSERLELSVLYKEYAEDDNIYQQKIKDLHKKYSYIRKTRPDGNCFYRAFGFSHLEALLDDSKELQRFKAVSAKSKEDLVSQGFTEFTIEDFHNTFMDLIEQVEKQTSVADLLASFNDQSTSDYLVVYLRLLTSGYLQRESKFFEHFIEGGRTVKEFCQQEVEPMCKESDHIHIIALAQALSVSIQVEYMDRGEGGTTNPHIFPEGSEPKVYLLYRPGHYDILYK
Chain of DUBs and other proteins in HEK293 cells (Homo sapiens, UniProt Q96BN8) (Q96BN8 whole entry): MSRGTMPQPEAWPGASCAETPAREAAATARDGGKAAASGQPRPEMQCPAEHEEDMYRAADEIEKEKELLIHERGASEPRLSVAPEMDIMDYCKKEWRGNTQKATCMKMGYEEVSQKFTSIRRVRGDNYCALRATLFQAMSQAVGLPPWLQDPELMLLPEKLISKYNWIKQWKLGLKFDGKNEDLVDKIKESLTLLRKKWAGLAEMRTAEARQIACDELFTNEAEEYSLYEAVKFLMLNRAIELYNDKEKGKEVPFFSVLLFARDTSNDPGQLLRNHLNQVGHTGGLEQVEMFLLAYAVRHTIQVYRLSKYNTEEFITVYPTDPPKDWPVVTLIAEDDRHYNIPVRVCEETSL

IC50 [1]: > 10 µM
Log2 reporter intensity values: USP10 ([2]; 1 at 1 μM): 0.8161 and 0.9562 and 0.9573
Log2 reporter intensity values: USP10 ([2]; 1 at 4 μM): 0.9286 and 0.9489 and 0.874
Log2 reporter intensity values ([2]; 1_1 μM): -0.1848 and -0.04476 and -0.04368
Log2 reporter intensity values ([2]; 1_4 μM): -0.07234 and -0.05211 and -0.1269
Log2 reporter intensity values ([2]; 1 at 1 μM): -0.2931 and -0.06461 and -0.06297
Log2 reporter intensity values ([2]; 1 at 4 μM): -0.1068 and -0.07574 and -0.1942
Log2 reporter intensity values: USP9X;USP9Y ([3]; 1 at 1 μM): 1.022 (2×) and 0.9739
Log2 reporter intensity values: USP9X;USP9Y ([3]; 1 at 4 μM): 0.949 and 1.006 and 0.9815
Log2 reporter intensity values ([3]; 1_1 μM): 0.0219 and 0.02206 and -0.02613
Log2 reporter intensity values ([3]; 1_4 μM): -0.05104 and 0.005497 and -0.01849
Log2 reporter intensity values ([3]; 1 at 1 μM): 0.0313 and 0.03153 and -0.03815
Log2 reporter intensity values ([3]; 1 at 4 μM): -0.07554 and 0.007953 and -0.02689
Log2 reporter intensity values, EIF3H ([4]; 1 μM 1 (60 min) + 20 nM ABP 2 (10 min), All values): -0.09256 and -0.05547 and -0.03085
Log2 reporter intensity values, EIF3H ([4]; 1 μM 1 (60 min) + 20 nM ABP 2 (10 min), DMSO subtracted): -0.1222 and -0.08506 and -0.06044
Log2 reporter intensity values, EIF3H ([4]; 4 μM 1 (60 min) + 20 nM ABP 2 (10 min), All values): -0.07138 and -0.1308 and -0.1362
Log2 reporter intensity values, EIF3H ([4]; 4 μM 1 (60 min) + 20 nM ABP 2 (10 min), DMSO subtracted): -0.101 and -0.1603 and -0.1658
Log2 reporter intensity values: EIF3H ([4]; 1 at 1 μM): 0.9188 and 0.9427 and 0.959
Log2 reporter intensity values: EIF3H ([4]; 1 at 4 μM): 0.9324 and 0.8948 and 0.8914
Log2 t-test Difference ([4]; 1 - 1 μM): -0.08557
Log2 t-test Difference ([4]; 1 - 4 μM): -0.1387
Log2 reporter intensity values ([4]; 1_1 μM, DMSO subtracted): -0.08133 and -0.0574 and -0.04117
Log2 reporter intensity values ([4]; 1_4 μM, DMSO subtracted): -0.06774 and -0.1053 and -0.1087
Log2 reporter intensity values ([4]; 1 at 1 μM, DMSO subtracted): -0.1222 and -0.08506 and -0.06044
Log2 reporter intensity values ([4]; 1 at 4 μM, DMSO subtracted): -0.101 and -0.1603 and -0.1658
Log2 reporter intensity values: OTUB1 ([5]; 1 at 1 μM): 1.079 and 1.058 and 1.055
Log2 reporter intensity values: OTUB1 ([5]; 1 at 4 μM): 0.9564 and 0.9957 and 1.033
Log2 reporter intensity values ([5]; 1_1 μM): 0.07905 and 0.05739 and 0.05461
Log2 reporter intensity values ([5]; 1_4 μM): -0.04373 and -0.004436 and 0.03334
Log2 reporter intensity values ([5]; 1 at 1 μM): 0.1099 and 0.08068 and 0.07687
Log2 reporter intensity values ([5]; 1 at 4 μM): -0.06433 and -0.00624 and 0.04749
Log2 reporter intensity values: OTULIN ([6]; 1 at 1 μM): 1.158 and 1.113 and 1.037
Log2 reporter intensity values: OTULIN ([6]; 1 at 4 μM): 1.068 and 1.004 and 1.156
Log2 reporter intensity values ([6]; 1_1 μM): 0.1579 and 0.1121 and 0.03603
Log2 reporter intensity values ([6]; 1_4 μM): 0.06743 and 0.003361 and 0.1557
Log2 reporter intensity values ([6]; 1 at 1 μM): 0.2122 and 0.154 and 0.0518
Log2 reporter intensity values ([6]; 1 at 4 μM): 0.09485 and 0.0056 and 0.2094
Log2 reporter intensity values: USP11 ([7]; 1 at 1 μM): 1.082 and 1.001 and 1.048
Log2 reporter intensity values: USP11 ([7]; 1 at 4 μM): 1.053 and 0.9981 and 1.068
Log2 reporter intensity values ([7]; 1_1 μM): 0.08158 and 0.0009743 and 0.04766
Log2 reporter intensity values ([7]; 1_4 μM): 0.05297 and -0.002249 and 0.06752
Log2 reporter intensity values ([7]; 1 at 1 μM): 0.1136 and 0.00189 and 0.06764
Log2 reporter intensity values ([7]; 1 at 4 μM): 0.07493 and -0.002761 and 0.09472
SMILES: N#CN1CCC[C@H]1C(=O)N1CCc2c(-c3c[nH]c4ncccc34)cccc21 [Compound 1]
